Reference: the NIST ThermoML archive (doi:10.1021/je049688b)
Numbers after ± are expanded uncertainties.

Conditions: Liquid, Ebulliometric method (Recirculating still)

| vapor or sublimation pressure (337.75 K) [kPa] | Structure (SMILES) | vapor or sublimation pressure (329.35 K) [kPa] |
| --- | --- | --- |
| 101 ± 1.3 | CO [methanol] |  |
|  | CC(C)=O [acetone] | 101 ± 1.3 |
